According to paper PMC3985299, “Single Ascending Dose Safety and Pharmacokinetics of CDRI-97/78: First-in-Human Study of a Novel Antimalarial Drug” (Malaria Research and Treatment, 2014):

Experiments:
[1] = system: healthy human volunteers; assay: Single ascending dose study: biochemical parameters (liver function tests, serum electrolytes); type: in vivo; set-up: Total serum bilirubin / Serum SGOT / Serum SGPT: unit not given here
Source text: The study was approved by the Institute's Ethics Committee. The single ascending dose study and the pharmacokinetic study are registered with Central Trial Registry of India (CTRI/2012/07/002812; CTRI/2012/07/002832). Normal healthy male volunteers in the age group of 18–45 years were invited to join the trial. A detailed informed consent process of the volunteers was undertaken and screening of the volunteers was done after obtaining informed consent. They were recruited through contacts and hospital employees were excluded. The health status of the volunteers was determined by taking medical history, physical examination, routine haematology (haemoglobin, total lymphocyte count, differential count, and platelet count), clinical biochemistry (serum glutamic oxaloacetic transaminase (SGOT), serum glutamic pyruvic transaminase (SGPT), serum bilirubin, serum creatinine, blood urea, serum electrolytes, random blood sugar, total protein, and serum lipid profile), and urine and stool analysis (routine examination and microscopy). The volunteers were asked to report to the study site after 12 hours of fasting for the blood tests. Chest X-ray and 12-lead ECG were also taken. The participants were also screened for human immunodeficiency virus (HIV) and hepatitis B. The volunteers after giving informed consent were screened. The screening process was done latest within 1 month of admission for dosing. The volunteers who fulfilled the inclusion/exclusion criteria were admitted in the CPU the night before drug administration. Standardized dinner was served at 9 pm the night prior to dosing. On day 0, baseline blood sample for biochemical and haematological examination and stool and urine samples for routine and microscopy were taken. They received the study drug, according to the randomization sequence, under supervision. The empty packaging was returned to the container. The volunteers received drug as per randomization. Breakfast was given half an hour after drug administration. Subsequently, standardized lunch and dinner were served to the volunteers. The subjects were attached to a cardiac monitor and vital HR, BP, ECG, oxygen saturation, and RR were recorded. Corrected QT interval using Fridericia's formula was calculated. Adverse events were assessed at specific time points (0.5, 1, 2, 4, 6, 8, 12, and 24 hrs after medication). Unscheduled monitoring was undertaken whenever it felt necessary. The volunteers were discharged after 24 hrs and they had to return at 48 hrs and on the 7th day for follow-up. At the end of the 7th day, they were said to have completed the study. Routine haematological and biochemical investigations were performed at 0 hr, 24 hrs after drug administration, and on day 7. The study was monitored by a Data Safety Monitoring Board.

[2] = system: P. cynomolgi; set-up: method as in printed; conditions: P. cynomolgi in rhesus monkeys; background, ref not given; cited from earlier work
[3] = system: chloroquine sensitive P. berghei; set-up: method as in printed; conditions: chloroquine sensitive P. berghei in mice; background, ref not given; cited from earlier work

In the case of `C=C(c1ccc(OC(C)(C)COC(=O)CCC(=O)O)cc1)C1COC2(OO1)C1CC3CC(C1)CC2C3` (stereo not shown) [CDRI 97/78, Mono[2methyl2[3(1spiro[tricycle[3.3.1.13,7]decane2,3′-[1,2,4]trioxan] 6′-ylethenyl)phenoxy]propyl] ester], the “Serum Alkaline phosphatase” value ([1]; 80 mg (n = 6), 24 hour) is reported as 102.5 ± 30.09, the “Serum SGOT” value ([1]; 80 mg (n = 6), 24 hour) is reported as 23.48 ± 2.88 and the “Serum SGPT” value ([1]; 80 mg (n = 6), 24 hour) is reported as 26.2 ± 6.6. For the same compound, the Total serum bilirubin ([1]; 80 mg (n = 6), 24 hour) was 0.73 ± 0.24, the “Serum Alkaline phosphatase” value ([1]; 80 mg (n = 6), Baseline) was 95.5 ± 26.65 and the “Serum SGOT” value ([1]; 80 mg (n = 6), Baseline) was 22.15 ± 6.3. The “Serum SGPT” value ([1]; 80 mg (n = 6), Baseline) was 21.88 ± 10.0, the Total serum bilirubin ([1]; 80 mg (n = 6), Baseline) was 0.82 ± 0.24 and the “Serum Alkaline phosphatase” value ([1]; 80 mg (n = 6), Day 7) was 106.83 ± 37.12. The “Serum SGOT” value ([1]; 80 mg (n = 6), Day 7) was 27.7 ± 6.1, the “Serum SGPT” value ([1]; 80 mg (n = 6), Day 7) was 21.8 ± 3.7 and the Total serum bilirubin ([1]; 80 mg (n = 6), Day 7) was 0.64 ± 0.23. For the same compound, the “Serum Alkaline phosphatase” value ([1]; 160 mg (n = 6), 24 hour) was 212 ± 67, the “Serum SGOT” value ([1]; 160 mg (n = 6), 24 hour) was 33.98 ± 9.69 and the “Serum SGPT” value ([1]; 160 mg (n = 6), 24 hour) was 39.43 ± 8.08. For the same compound, the Total serum bilirubin ([1]; 160 mg (n = 6), 24 hour) was 0.55 ± 0.07, the “Serum Alkaline phosphatase” value ([1]; 160 mg (n = 6), Baseline) was 211.5 ± 68.65 and the “Serum SGOT” value ([1]; 160 mg (n = 6), Baseline) was 34.18 ± 7.89. The “Serum SGPT” value ([1]; 160 mg (n = 6), Baseline) was 37.21 ± 4.16, the Total serum bilirubin ([1]; 160 mg (n = 6), Baseline) was 0.76 ± 0.39 and the “Serum Alkaline phosphatase” value ([1]; 160 mg (n = 6), Day 7) was 207.17 ± 61.03. For the same compound, the “Serum SGOT” value ([1]; 160 mg (n = 6), Day 7) was 38.33 ± 8.91, the “Serum SGPT” value ([1]; 160 mg (n = 6), Day 7) was 44.5 ± 11.64 and the Total serum bilirubin ([1]; 160 mg (n = 6), Day 7) was 0.6 ± 0.06. The “Serum Alkaline phosphatase” value ([1]; 320 mg (n = 6), 24 hour) was 222.5 ± 34.55, the “Serum SGOT” value ([1]; 320 mg (n = 6), 24 hour) was 34.17 ± 7.76 and the “Serum SGPT” value ([1]; 320 mg (n = 6), 24 hour) was 37.33 ± 8.87. The Total serum bilirubin ([1]; 320 mg (n = 6), 24 hour) was 0.8 ± 0.4, the “Serum Alkaline phosphatase” value ([1]; 320 mg (n = 6), Baseline) was 242 ± 45.24 and the “Serum SGOT” value ([1]; 320 mg (n = 6), Baseline) was 32.83 ± 5.15. The “Serum SGPT” value ([1]; 320 mg (n = 6), Baseline) was 33.83 ± 9.09, the Total serum bilirubin ([1]; 320 mg (n = 6), Baseline) was 0.73 ± 0.52 and the “Serum Alkaline phosphatase” value ([1]; 320 mg (n = 6), Day 7) was 235.83 ± 32.49. For the same compound, the “Serum SGOT” value ([1]; 320 mg (n = 6), Day 7) was 35 ± 8.53, the “Serum SGPT” value ([1]; 320 mg (n = 6), Day 7) was 38.33 ± 13.84 and the Total serum bilirubin ([1]; 320 mg (n = 6), Day 7) was 0.87 ± 0.59. For the same compound, the “Serum Alkaline phosphatase” value ([1]; 400 mg (n = 6), 24 hour) was 251.67 ± 47.59, the “Serum SGOT” value ([1]; 400 mg (n = 6), 24 hour) was 31.5 ± 4.5 and the “Serum SGPT” value ([1]; 400 mg (n = 6), 24 hour) was 35.17 ± 4.12. The Total serum bilirubin ([1]; 400 mg (n = 6), 24 hour) was 0.53 ± 0.05, the “Serum Alkaline phosphatase” value ([1]; 400 mg (n = 6), Baseline) was 232.83 ± 42 and the “Serum SGOT” value ([1]; 400 mg (n = 6), Baseline) was 26.67 ± 6.62. The “Serum SGPT” value ([1]; 400 mg (n = 6), Baseline) was 29 ± 5.44, the Total serum bilirubin ([1]; 400 mg (n = 6), Baseline) was 0.52 ± 0.04 and the “Serum Alkaline phosphatase” value ([1]; 400 mg (n = 6), Day 7) was 242.83 ± 34.82. The “Serum SGOT” value ([1]; 400 mg (n = 6), Day 7) was 32.33 ± 8.87, the “Serum SGPT” value ([1]; 400 mg (n = 6), Day 7) was 38 ± 12.95 and the Total serum bilirubin ([1]; 400 mg (n = 6), Day 7) was 0.55 ± 0.08. For the same compound, the “Serum Alkaline phosphatase” value ([1]; 500 mg (n = 6), 24 hour) was 313 ± 124.5, the “Serum SGOT” value ([1]; 500 mg (n = 6), 24 hour) was 31.5 ± 6.02 and the “Serum SGPT” value ([1]; 500 mg (n = 6), 24 hour) was 34.83 ± 11.07. For the same compound, the Total serum bilirubin ([1]; 500 mg (n = 6), 24 hour) was 0.52 ± 0.04, the “Serum Alkaline phosphatase” value ([1]; 500 mg (n = 6), Baseline) was 321.17 ± 151 and the “Serum SGOT” value ([1]; 500 mg (n = 6), Baseline) was 31.33 ± 8.76. The “Serum SGPT” value ([1]; 500 mg (n = 6), Baseline) was 32.83 ± 11.5, the Total serum bilirubin ([1]; 500 mg (n = 6), Baseline) was 0.52 ± 0.04 and the “Serum Alkaline phosphatase” value ([1]; 500 mg (n = 6), Day 7) was 339.67 ± 184.25. The “Serum SGOT” value ([1]; 500 mg (n = 6), Day 7) was 34 ± 6.00, the “Serum SGPT” value ([1]; 500 mg (n = 6), Day 7) was 35.33 ± 10.56 and the Total serum bilirubin ([1]; 500 mg (n = 6), Day 7) was 0.53 ± 0.05. The “Serum Alkaline phosphatase” value ([1]; 600 mg (n = 6), 24 hour) was 275.83 ± 61.29, the “Serum SGOT” value ([1]; 600 mg (n = 6), 24 hour) was 30.33 ± 6.74 and the “Serum SGPT” value ([1]; 600 mg (n = 6), 24 hour) was 30.5 ± 8.46. For the same compound, the Total serum bilirubin ([1]; 600 mg (n = 6), 24 hour) was 0.8 ± 0.59, the “Serum Alkaline phosphatase” value ([1]; 600 mg (n = 6), Baseline) was 272.5 ± 66.71 and the “Serum SGOT” value ([1]; 600 mg (n = 6), Baseline) was 31.17 ± 6.3. For the same compound, the “Serum SGPT” value ([1]; 600 mg (n = 6), Baseline) was 30 ± 7.16, the Total serum bilirubin ([1]; 600 mg (n = 6), Baseline) was 0.8 ± 0.54 and the “Serum Alkaline phosphatase” value ([1]; 600 mg (n = 6), Day 7) was 274 ± 75.17. The “Serum SGOT” value ([1]; 600 mg (n = 6), Day 7) was 31.33 ± 5.78, the “Serum SGPT” value ([1]; 600 mg (n = 6), Day 7) was 33.17 ± 10.53 and the Total serum bilirubin ([1]; 600 mg (n = 6), Day 7) was 0.82 ± 0.59. The “Serum Alkaline phosphatase” value ([1]; 700 mg (n = 2), 24 hour) was 254 ± 56.57, the “Serum SGOT” value ([1]; 700 mg (n = 2), 24 hour) was 40 ± 4.24 and the “Serum SGPT” value ([1]; 700 mg (n = 2), 24 hour) was 46.5 ± 4.95. The Total serum bilirubin ([1]; 700 mg (n = 2), 24 hour) was 0.6 ± 0.14, the “Serum Alkaline phosphatase” value ([1]; 700 mg (n = 2), Baseline) was 261.5 ± 50.2 and the “Serum SGOT” value ([1]; 700 mg (n = 2), Baseline) was 35.5 ± 0.71. For the same compound, the “Serum SGPT” value ([1]; 700 mg (n = 2), Baseline) was 46 ± 5.66, the Total serum bilirubin ([1]; 700 mg (n = 2), Baseline) was 0.6 ± 0.14 and the “Serum Alkaline phosphatase” value ([1]; 700 mg (n = 2), Day 7) was 260.5 ± 44.55. The “Serum SGOT” value ([1]; 700 mg (n = 2), Day 7) was 34.5 ± 0.71, the “Serum SGPT” value ([1]; 700 mg (n = 2), Day 7) was 40 ± 11.31 and the Total serum bilirubin ([1]; 700 mg (n = 2), Day 7) was 0.55 ± 0.07. The “Serum sodium and serum potassium values vs normal physiological ranges” value ([1]; all time points, all groups) was “None of the volunteers had values outside the normal physiological ranges”, the “Serum bilirubin, SGOT and SGPT, intergroup comparisons” value ([1]; any time point of measurement, 80-700 mg and placebo) was “no significant difference” and the Antimalarial activity [2] was “powerful antimalarial activity”. For the same compound, the Antimalarial activity [3] was “powerful antimalarial activity”.
